A short description of this data set: Human HepG2 cell viability assay in 384 well format. The settings on record: HepG2 cells, read-out: Inhibition. Further details: dose 125 nL, time 70.5 hour; cytotoxicity at 70.5 h: concentration not given beside the values. In kind it is toxicity, cell-based.

As to `CC(C)Oc1ccc(-c2csc(Cn3ccc(=O)[nH]c3=O)n2)cc1`, the cytotoxicity at 70.5 h was -0.0528%.
Under `O=C(Nc1ccccc1)NC1CCN(C2CCOC2)CC1` (configuration not stated) stands 5.7%; under `Cc1cccc(NC(=O)NC2CCN(C3CCOC3)CC2)c1` (configuration not stated), 3.03%.
As for `O=C(NCc1ccccn1)Nc1ccc2[nH]nnc2c1`, the figure is -4.24%; as for `Cn1cnnc1-c1cncc(NCc2ccccc2Br)c1`, 13.6%.
As for `CC(=O)c1csc(-c2csc(Cn3ccc(=O)[nH]c3=O)n2)c1`, the figure is 4.03%.
In the case of `NC(=O)NC(=O)CCn1ccc(-c2ccsc2)n1`, the cytotoxicity at 70.5 h was -1.15%.
`Cc1noc(C)c1CSCc1nc(N)c2ccccc2n1`: the cytotoxicity at 70.5 h came to 0.626%.
Under `C[C@@H]1CN(C(=O)Nc2cccc(OC(F)F)c2)CC(C(N)=O)O1` (some centres not stated) stands -1.07%; under `Cn1cc(S(=O)(=O)N2CCC(OCCCc3ccccc3)C2)cn1` (configuration not stated), 21.6%.
As for `CCc1nc(CC(=O)NC(C#N)CC(C)C)cs1` (configuration not stated), the figure is -0.177%.
As for `COCCN(Cc1ccco1)Cc1nc(-c2ccsc2)no1`, the figure is 11.1%; as for `COCCN(Cc1ccco1)Cc1nc(-c2ccccc2C)no1`, 1.45%; as for `COCCN(Cc1ccco1)Cc1nc(-c2ccc(C)c(F)c2)no1`, 17.2%.
As to `CCc1nc(CC(=O)NC(C#N)CC)cs1` (configuration not stated), the cytotoxicity at 70.5 h is -0.988%.
As for `C1CCN(CCOC2CCNCC2)CC1`, the figure is 19.9%.
Take `Cc1[nH]ccc1C(=O)N(Cc1ccc(O)cc1)CC1CC1`: the cytotoxicity at 70.5 h is -3.9%.
On to `Cn1cc(C(=O)Nc2cccc(CCN3CCCC3)c2)ccc1=O`, for which the cytotoxicity at 70.5 h is -5.46%.
As for `COCCNC(=O)C(C)S(=O)(=O)c1ccc(OC)cc1` (configuration not stated), the figure is 6.85%.
Under `CC1CCN(c2ccnc3ccc(Br)cc23)CC1` stands 2%.
Under `O=C(CNC(=O)C1CC1)NCCOc1cccc(Cl)c1Cl` stands 31.3%; under `O=C1CCC(C(=O)NCCOc2ccccc2-c2ccccc2)CN1` (configuration not stated), -13.3%; under `CC(C)CNC(=O)c1ccc(NC(=O)NCC2CC2)cc1Cl`, -12.7%.
Take `NC(=O)CCn1nnc(-c2cc3ccccc3o2)n1`: the cytotoxicity at 70.5 h is -13.1%.
As to `N#CCCN(Cc1ccco1)C(=O)Cc1ccc(-n2cnnn2)cc1`, the cytotoxicity at 70.5 h was -6.73%.
Regarding `CSc1sc(NC(=O)C2CCCN(C(N)=O)C2)nc1C` (configuration not stated), the cytotoxicity at 70.5 h is -13.6%.
Consider `CC1CCN(C(=O)C(C)N2CCc3[nH]nc(C(F)(F)F)c3C2)CC1` (configuration not stated), for which the cytotoxicity at 70.5 h was -8.79%.
Under `CC(C)(C)CN(CCC#N)C(=O)Cc1ccc(-n2cnnn2)cc1` stands -10.8%; under `CC(C(=O)NC1CCCCC1)N1CCc2[nH]nc(C(F)(F)F)c2C1` (configuration not stated), -7.82%; under `CC(C)(C)NS(=O)(=O)c1cc(NC(=O)C2CC2)ccc1F`, -5.03%.
On to `O=C(CCc1ccsc1)NS(=O)(=O)Cc1ccon1`, for which the cytotoxicity at 70.5 h was -0.591%.
Regarding `CCN1CCN(C(=O)NC(C)c2noc(-c3ccccc3)n2)CC1` (configuration not stated), the cytotoxicity at 70.5 h is -6.34%.
Under `O=C(CSCc1ccccn1)N(Cc1ccsc1)C1CC1` stands -2.85%.
Under `CC(C)(C)c1ncc(CNCC2CCCn3ccnc32)s1` (configuration not stated) stands -4.17%; under `CN1CCOC(C(=O)Nc2ccc3c(c2)nc(C(C)(C)C)n3C)C1` (configuration not stated), -2.12%; under `Cc1ccc(CNCC2CCCn3ccnc32)s1` (configuration not stated), -4.1%.
As for `CCCN(CCN(C)C)C(=O)Cc1cn2ccsc2n1`, the figure is 5.05%; as for `N#Cc1ccc(NCCCOCC2CCOC2)c(F)c1` (configuration not stated), 6.96%; as for `CC(Cn1cccn1)NS(=O)(=O)Cc1ccccc1` (configuration not stated), 24.2%.
Turning to `CN(CCC#N)C(=O)Cc1csc(-c2ncccn2)n1`, the cytotoxicity at 70.5 h was -3.29%.
As to `c1cncc(-c2ccnn2CN2CCC3(CC2)OCCO3)c1`, the cytotoxicity at 70.5 h was -5.34%.
Under `CN(C)C(=O)Cn1ccc2cc(NC(=O)N3CCSCC3)ccc21` stands -7.46%; under `CN(C)C(=O)Cn1ccc2cc(NC(=O)N3CCOCC3)ccc21`, -5.35%.
Under `Cc1cnn(CCCNC(=O)NC2CCN(CC(F)(F)F)C2=O)c1` (configuration not stated) stands -4.78%; under `CC(C)(NCC(=O)N1CCCC(C(N)=O)C1)c1ccc(Cl)cc1` (configuration not stated), -3.83%.
As for `CCC[C@@H](NC(N)=O)C(=O)N1Cc2ccccc2-c2ccccc2C1`, the figure is -2.69%; as for `CC(CC(=O)Nc1ccc(C(=O)N(C)C)c(Cl)c1)n1cccc1` (configuration not stated), 7.79%; as for `COc1cccc2c1CCN(C(=O)NCCc1nccn1C)C2`, -1.05%.
On to `COc1cccc2c1CCN(C(=O)NCc1nnc3ccccn13)C2`, for which the cytotoxicity at 70.5 h is 0.687%.
As for `CN1CCOC(C(=O)N2CCC3(CCCC3)CC2)C1` (configuration not stated), the figure is -2.13%; as for `COc1ccc(Cl)cc1NC(=O)N(C)CC(O)COCCOC(C)C` (configuration not stated), -4.88%; as for `CC(=O)NC1CCCN(c2ccc(C#N)cc2C(F)(F)F)C1` (configuration not stated), -0.014%.
As for `CN1CCOC(C(=O)N2CCCC(C)(C)CC2)C1` (configuration not stated), the figure is -3.51%.
Under `O=S(=O)(Cc1ccccc1Cl)NC(CO)c1ccco1` (configuration not stated) stands -6.59%.
For `Cc1ccc(OCC(=O)N(C)Cc2ccc(F)cc2)cn1`, the cytotoxicity at 70.5 h was -8.48%.
As for `COCC1CN(C(=O)Nc2cc(C(F)(F)F)ccc2F)CCO1` (configuration not stated), the cytotoxicity at 70.5 h is -5.23%.
Under `COc1ccccc1CN(Cc1nc2c(cnn2C)c(=O)[nH]1)C1CC1` stands 28.9%; under `COc1ccccc1N(C)Cc1nc2c(cnn2C)c(=O)[nH]1`, -4.86%.
Under `COc1ccccc1C1(CNc2snc(Cl)c2C#N)CCOCC1` stands -4.49%; under `CC(C)(CC(=O)N(CC(N)=O)C1CCCC1)c1ccccc1`, -9.09%; under `CN(CCn1cccn1)S(=O)(=O)c1cccc(F)c1C#N`, -9.35%.
Under `COCC1CN(C(=O)Nc2cc(Cl)cc(Cl)c2)CCO1` (configuration not stated) stands -5.22%.
In the case of `CCCn1nc(-c2nc(COc3ccccc3)no2)ccc1=O`, the cytotoxicity at 70.5 h was -7.31%.
In the case of `CCCn1nc(-c2nc(Cc3ccc(OC)cc3)no2)ccc1=O`, the cytotoxicity at 70.5 h was -8.43%.
Under `Cc1cc(C#N)ccc1S(=O)(=O)N1CCN(C)Cc2ccccc21` stands -0.39%.
As to `Cc1noc(COCC(=O)Nc2ccc(Br)c(C)n2)n1`, the cytotoxicity at 70.5 h was 24.3%.
Under `Cc1noc(CCCC(=O)Nc2ncccc2Br)n1` stands -7.59%; under `CS(=O)(=O)CCOCCNc1ccc2ccc(F)cc2n1`, -3.21%.
As for `Cc1cc(F)ccc1S(=O)(=O)N1CCN(C)Cc2ccccc21`, the figure is -6.39%; as for `CCC(C)CN(C)C(=O)NCc1ccccc1-n1cccn1` (configuration not stated), 1.17%; as for `Cc1noc(COCC(=O)Nc2ncccc2Br)n1`, 2.34%.
With `COCC1CN(C(=O)Nc2ccc(Cl)cc2Cl)CCO1` (configuration not stated), the cytotoxicity at 70.5 h was -8.42%.
As for `CCCN1CCCN(C(=O)C(CC)N2CCCC2=O)CC1` (configuration not stated), the figure is -14.5%; as for `COCC1CN(C(=O)Nc2cc(Br)ccc2F)CCO1` (configuration not stated), -10.1%.
Under `COc1cc(F)c(S(=O)(=O)N2CCN(C)Cc3ccccc32)cc1OC` stands -10.1%; under `CC(=O)NCCC(=O)Nc1sccc1C(=O)C(C)(C)C`, 2.44%; under `CS(=O)(=O)NCCC(=O)N1CCN(S(=O)(=O)c2ccc(Br)cc2)CC1`, 6.55%.
Under `Cc1ccnc(NC(=O)CSCc2cccnc2)c1` stands -2.67%.
With `Cc1ccc(-n2ncc(C(=O)NC3CCCCC3)c2N)cc1`, the cytotoxicity at 70.5 h is -2.62%.
Under `O=C(NCCc1ccccc1)N1CCC(C2OCCO2)CC1` stands -4.29%; under `CN(C)C(=O)CNS(=O)(=O)c1cc(Br)ccc1F`, 2.64%.
In the case of `CC(O)CNC(=O)NCCCN1CCN(c2ncccn2)CC1` (configuration not stated), the cytotoxicity at 70.5 h is -6.22%.
As for `O=C(c1ccncn1)N1CCC[C@]2(C[C@@H](OCc3ccccn3)CO2)C1`, the figure is 10.5%; as for `Cc1cc(C(=O)N2CCn3cc(CN4CCCC4)nc3C2)no1`, -13.3%; as for `O=C(c1cccc(F)c1)N1CC[C@@H]2CN(c3ncccn3)CCO[C@@H]2C1`, -15.1%.
Under `O=C(c1cscn1)N1CCc2ncc(CN3CCOCC3)n2CC1` stands -15.7%.
Consider `CN(C)Cc1cnc2n1CCN(C(=O)C1CC=CC1)CC2`, for which the cytotoxicity at 70.5 h is -12.7%.
Under `O=C(C1CCOCC1)N1CCc2ncc(CN3CCCCC3)n2CC1` stands -10.2%; under `Cc1ccccc1C(=O)N1CC[C@@H]2CN(c3ncccn3)CCO[C@@H]2C1`, -10.9%.
As for `O=C([C@H]1CCCO1)N1CCc2ncc(CN3CCOCC3)n2CC1`, the figure is -11.9%.
Under `C1CCN(CCOC2CCNC2)CC1` (configuration not stated) stands -3.02%; under `O=C(NCc1ccco1)[C@H]1COC[C@H]2CN(Cc3ccoc3)C[C@H]21`, 13.6%.
In the case of `O=C(CC1CCCC1)N1CCn2cc(Cn3cccn3)nc2C1`, the cytotoxicity at 70.5 h was -11.5%.
Turning to `c1ccc(CN2CCC3(CC2)CC(Nc2nccs2)CO3)nc1` (configuration not stated), the cytotoxicity at 70.5 h is -8.19%.
Under `O=C(CC1CC1)N1CCn2cc(Cn3cccn3)nc2C1` stands -15.8%; under `O=C([C@@H]1CCO[C@@H]2CCN(Cc3ccsc3)C[C@@H]21)N1CCCC1`, -16.1%.
As for `O=C(Cc1cccc(F)c1)N1CCn2cc(Cn3cccn3)nc2C1`, the figure is -10.7%; as for `O=C(C1CCOCC1)N1CCc2ncc(CN3CCCC3)n2CC1`, -13.2%; as for `CNC(=O)[C@@H]1CCO[C@@H]2CCN(Cc3ccsc3)C[C@H]21`, -14%.
As for `O=C(Nc1cnccn1)[C@@H]1CCO[C@@H]2CCN(Cc3ccsc3)C[C@@H]21`, the figure is -9.48%; as for `CNC(=O)C1Cn2ccnc2C2(CCN(Cc3nccs3)CC2)O1` (configuration not stated), 10.7%.
Regarding `CN(C)c1ccc(CNC2=NCCCN2)cc1`, the cytotoxicity at 70.5 h is 13.3%.

The values above are taken from ChEMBL document CHEMBL3507680, “University of Dundee, Gates Library screen for HepG2 cell viability”.
